The supplement of paper PMC10307832

Columns and labels:
Test in all cases: relative viability (nuclei count vs DMSO), 5 days (fraction); higher = more cells survive
[1] = compound: C[C@@H](N)c1ccc(C(=O)Nc2ccnc3[nH]ccc23)cc1
Summary of the method: (§1)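 Hoechst staining, done together with fixation and permeabilisation, marked nuclei for 4× imaging and MetaXpress counting. This followed 5 days without medium change after lung cancer cell lines, kept overnight at 37 °C in 1536-well plates, were pinned with five library-drug doses (not always all listed) spaced by √10 on vehicle-anchored plates. Viability is the ratio of treated-well to vehicle-well nuclei, expressed as a median across plates. Plates passed only at control CV below 25% with at least one doubling.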

[2] = compound: C1CNCCC1C2=CC(=NN2)C3=CC=NC=C3
Summary of the method: as §1

Tanzisertib = compound: O[C@H]1CC[C@H](Nc2ncc3nc(Nc4c(F)cc(F)cc4F)n([C@H]4CCOC4)c3n2)CC1 [Tanzisertib]
Summary of the method: as §1

[3] = compound: C1CNCCC1C2=CC(=NN2)C3=CC=NC=C3 + COc1cc2c(Oc3ccc(NC(=O)C4(C(=O)Nc5ccc(F)cc5)CC4)cc3F)ccnc2cc1OCCCN1CCOCC1 [Foretinib] (partner 0.25 µM)
Summary of the method: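 Relative viability divides the nuclei count in treated wells by that in vehicle wells. Lung cancer cell lines were seeded in 1536-well plates, dosed by pin tool the next day, and fixed and stained after 5 days in one step with final 0.05% Triton X-100, 1% formaldehyde and 1 ug/ml Hoechst. Dosing was a single drug or a fixed anchor-drug dose plus five library-drug doses (not always all listed) in √10 steps, and values are medians of duplicate plates imaged at 4×.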

Cell Line	relative viability ([1]; 0.04 µM)	relative viability ([1]; 0.1265 µM)	relative viability ([1]; 0.4 µM)	relative viability ([1]; 1.265 µM)	relative viability ([1]; 4 µM)	relative viability ([2]; 0.08 µM)	relative viability ([2]; 0.8 µM)	relative viability ([2]; 2.53 µM)	relative viability ([2]; 8 µM)	relative viability (Tanzisertib; 0.08 µM)	relative viability (Tanzisertib; 0.253 µM)	relative viability (Tanzisertib; 0.8 µM)	relative viability (Tanzisertib; 2.53 µM)	relative viability (Tanzisertib; 8 µM)	relative viability ([3]; first compound 0.08 µM)	relative viability ([3]; first compound 0.8 µM)	relative viability ([3]; first compound 2.53 µM)	relative viability ([3]; first compound 8 µM)
SW 900	0.92	0.965	0.887	1.24	0.986	0.843	0.67	0.88	0.995	0.811	0.87	0.936	1.18	0.691	0.899	1.01	0.856	1.01
NCI-H1944	1.01	0.987	1.02	0.822	0.793	0.903	0.964	0.987	1.01	1.14	0.966	0.971	1	0.86	0.845	0.884	0.997	0.839
NCI-H727	1.02	1.17	1.25	0.932	1.3	0.874	0.942	1.05	1.22	0.918	0.901	1.01	0.887	0.944	0.805	0.758	1.13	0.904
NCI-H1650	0.933	1.05	0.951	0.977	0.867	0.752	0.995	0.987	0.955	0.953	1	0.93	0.864	0.771	0.798	0.98	1.16	1.21
HCC-827	0.901	1.13	1.05	1.05	0.938	1.05	1.04	1.06	1.01	1.07	1.05	1.03	1.02	0.663	1.04	1.07	1.01	1.12
HCC-366	1.01	1.04	1.09	–	1.03	0.969	0.995	1.01	0.999	0.981	1.03	1.01	0.993	0.487	0.95	0.946	0.905	1.03
HARA	1	0.929	1.11	0.689	0.779	1.05	0.898	1.16	0.928	1.12	1.12	0.932	1.05	0.725	0.842	1.21	0.993	0.707
NCI-H322M	1.14	1.12	1.14	–	1.25	0.93	0.923	0.92	1.02	1.06	0.969	1.02	0.919	0.867	0.965	1.1	1.02	1.13
LXF-289	1.03	1	1.03	1.05	0.902	1.04	1.05	0.991	1	1.08	0.986	1.07	1.05	1.16	0.978	1.03	0.989	0.918
PC-3 [JPC-3]	0.986	1.04	0.997	0.949	0.884	1.02	1	1.08	1.03	1.02	1.06	1.11	0.983	0.871	1.01	1.07	1.1	1.04
CAL-12T	1.11	1.04	1.23	0.945	0.839	1.01	1.18	1.08	0.99	1.03	1.09	1.08	1.05	1.03	1.09	1.11	1.22	1.06
COR-L 105	0.91	0.964	1.11	0.7	0.735	0.857	0.925	1.02	0.923	1.08	0.899	0.918	1.15	0.706	1.22	1.07	1.13	1.67
NCI-H2347	0.971	0.995	1.14	0.816	0.956	1.01	0.869	1.08	1.12	1.11	0.956	1.06	1.08	0.965	1.21	0.742	0.805	1.25
NCI-H2126	1.06	0.999	0.994	0.889	1.1	0.944	0.969	1.06	1.02	1.01	1.08	1.03	0.983	0.893	1.18	1.31	1.23	1.29
NCI-H838	0.761	0.905	0.867	0.576	0.415	0.997	0.884	1.01	0.956	0.987	0.985	0.933	0.933	0.917	1.03	0.996	1.08	0.996
A549	1.02	1.03	1.19	0.944	0.829	0.872	1.03	1.07	1.05	1	0.99	0.976	1	0.856	0.932	0.979	1.03	1.01
NCI-H2342	1.03	1.06	1.04	1.21	0.927	0.919	0.965	1.03	1.16	1.09	1.09	0.945	0.845	0.959	0.899	1.04	1.21	1.29
NCI-H1623	1.16	0.976	1.11	1.06	1.15	0.991	0.921	1.14	1.03	1.08	1.21	1.01	0.964	0.952	0.891	0.702	1.03	0.924
